# Ends that are not written are not given here.
# T1: apelin receptor (Homo sapiens, UniProt P35414)
# T1 sequence (P35414 1-380): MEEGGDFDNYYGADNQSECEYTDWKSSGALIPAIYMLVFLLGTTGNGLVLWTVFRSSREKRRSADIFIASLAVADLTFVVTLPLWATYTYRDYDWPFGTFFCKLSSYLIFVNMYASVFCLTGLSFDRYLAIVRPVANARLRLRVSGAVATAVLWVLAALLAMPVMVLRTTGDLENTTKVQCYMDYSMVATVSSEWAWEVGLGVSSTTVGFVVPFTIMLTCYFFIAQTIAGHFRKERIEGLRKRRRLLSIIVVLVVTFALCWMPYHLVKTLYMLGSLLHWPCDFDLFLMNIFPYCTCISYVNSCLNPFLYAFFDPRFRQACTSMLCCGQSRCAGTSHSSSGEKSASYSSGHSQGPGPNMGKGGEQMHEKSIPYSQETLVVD
# T2: apelin receptor (Rattus norvegicus, UniProt Q9JHG3)
# T2 construct: experiments using native rat and human receptor; from tissue; host or cells: pooled hearts of Sprague Dawley rats
# T2 sequence (Q9JHG3 1-377): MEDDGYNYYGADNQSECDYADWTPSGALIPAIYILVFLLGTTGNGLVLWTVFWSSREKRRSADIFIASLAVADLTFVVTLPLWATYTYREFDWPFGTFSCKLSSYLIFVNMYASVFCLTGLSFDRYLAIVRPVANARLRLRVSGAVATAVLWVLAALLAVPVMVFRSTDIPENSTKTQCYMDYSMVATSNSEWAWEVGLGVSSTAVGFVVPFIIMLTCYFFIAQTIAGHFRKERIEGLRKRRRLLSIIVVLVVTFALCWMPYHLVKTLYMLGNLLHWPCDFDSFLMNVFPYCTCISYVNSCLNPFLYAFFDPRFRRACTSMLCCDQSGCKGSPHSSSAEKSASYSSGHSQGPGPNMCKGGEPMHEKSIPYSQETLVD
# T3: apelin receptor (Rattus norvegicus), Q9JHG3
# T3 chain: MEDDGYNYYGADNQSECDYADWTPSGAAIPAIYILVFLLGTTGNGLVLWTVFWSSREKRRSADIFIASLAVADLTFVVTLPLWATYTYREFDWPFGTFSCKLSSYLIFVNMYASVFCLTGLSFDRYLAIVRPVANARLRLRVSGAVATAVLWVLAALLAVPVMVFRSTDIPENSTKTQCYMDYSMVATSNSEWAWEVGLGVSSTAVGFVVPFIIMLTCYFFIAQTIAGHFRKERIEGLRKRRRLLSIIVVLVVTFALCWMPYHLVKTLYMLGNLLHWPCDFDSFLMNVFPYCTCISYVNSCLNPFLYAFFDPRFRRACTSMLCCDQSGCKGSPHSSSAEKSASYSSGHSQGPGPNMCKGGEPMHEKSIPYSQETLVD
# Legend:
# apelin receptor [1] = target: T1, apelin receptor; experiment: Inhibition of forskolin-induced cAMP accumulation assay (DiscoverX); type: cell-based; parameters: host or cells: CHO-K1; settings: for cAMP Assay Fold change: fold change in potency relative to apelin-36; for cAMP Assay RE (relative effectiveness) / cAMP Assay ΔlogR: operational model, compared to apelin-36
# Method: Cell-based cAMP assay were performed as previously described. Briefly, Chinese Hamster Ovary cells (CHO-K1) cells artificially expressing the human apelin receptor were seeded in Cell Plating media into 96-well plates and incubated for 24 h at 37 °C in 5% CO2. […] Cells were subsequently incubated with cAMP Detection Reagent comprising cAMP Lysis Buffer, Substrate Reagent 1, Substrate Reagent 2 and cAMP Solution D for 1 h at room temperature followed by 3 h incubation with cAMP Reagent A at room temperature and chemiluminescence reading (LumiLITE™ Microplate Reader, DiscoverX). Responses were fitted to a 4-parameter logistic equation in GraphPad Prism 7 (La Jolla, CA, USA) and values of potency, pD2 (-log10 EC50, where EC50 is the concentration producing half maximal response) determined. Data were expressed as percentage inhibition of forskolin-stimulated cAMP production.
# (§1) Data were expressed as mean ± SEM. Experiments were performed in triplicates or duplicates and n-values were expressed as number of independent experiments. Potencies of analogues in cell-based assays were compared to native apelin-36 using a one-way ANOVA with Dunnett’s posthoc test in GraphPad Prism 7. A P value < 0.05 was considered statistically significant. Binding affinities in both species were compared using Student’s t-test in Graphpad Prism as described above. Bias calculations were performed as previously described using the operational model for bias, to obtain values for relative effectiveness of the apelin-36 synthetic analogues compared to apelin-36 within each cell-based assay. Bias factors were calculated to compare the relative activities of the analogues between the different pathways – β-arrestin (G protein independent) and cAMP (G protein dependent).
# apelin receptor [2] = target: T1, apelin receptor; experiment: β-Arrestin recruitment assay (DiscoverX AGTRL1); type: cell-based; parameters: host or cells: CHO-K1; settings: for β-Arrestin Assay Fold change: fold change in potency relative to apelin-36; for β-Arrestin Assay RE (relative effectiveness) / β-Arrestin Assay ΔlogR: operational model, compared to apelin-36; for β-Arrestin Assay ΔlogR / β-Arrestin Assay pD2±SEM / EC50: n = 3-4 independent experiments; for β-Arrestin Assay pD2±SEM / EC50: CHO-K1 cells expressing human apelin receptor, 90 min, 37 °C, mean ± SEM, SEM; for EC50: read-out: β-Arrestin Assay pD2±SEM (converted)
# Method: Experiments were performed using a β-arrestin GPCR Assay (AGTRL1) (DiscoverX, Lot No.: 16L0902) according to methods previously described. CHO-K1 cells artificially expressing the human apelin receptor were seeded in Cell Plating media into 96-well plates and incubated for 48 h at 37 °C in 5% CO2. […] Negative controls were defined with equal volumes of drug solvent (water). The resulting chemiluminescent signal was measured using a LumiLITE™ Microplate Reader (DiscoverX, Fremont, CA). Responses, measured in relative light units, were fitted with a 4-parameter logistic equation in GraphPad Prism 7 (La Jolla, CA, USA) and values of pD2 and maximum response (EMax) were calculated for each compound.
# as §1
# apelin receptor [3] = target: T1, apelin receptor; experiment: Bias analysis, cAMP vs β-arrestin (operational model for bias); type: cell-based; parameters: host or cells: CHO-K1; settings: for cAMP vs β-arrestin Assay Bias factor: G protein (cAMP) over β-arrestin; for cAMP vs β-arrestin Assay Bias factor / cAMP vs β-arrestin Assay ΔΔlogR ± SEM: reference ligand apelin-36; for cAMP vs β-arrestin Assay ΔΔlogR ± SEM: difference between ΔlogR in cAMP and β-arrestin pathways
# Method: as §1, with “A P value < 0.05 was considered statistically significant.” left out, “Bias calculations were performed as previously described using the operational model for bias, to obtain values for relative effectiveness of the apelin-36 synthetic analogues compared to apelin-36 within each cell-based assay.” left out
# apelin receptor [4] = target: T2, apelin receptor; experiment: Radioligand competition binding, rat heart homogenate; settings: [125I]apelin-13 0.1 nM, 90 min, competitor 50 pM-100 μM, mean ± SEM, n = 3 replicates per concentration
# Description: Samples of human left ventricle were obtained with informed consent and ethical approval (05/Q104/142) via the Papworth Hospital Research Tissue Bank (08/H0304/56) from the explanted hearts of five dilated cardiomyopathy patients (4 males and 1 female, aged 38–55 years) undergoing transplantation. Studies conformed to the principles outlined in the declaration of Helsinki. All animal research was regulated under the Animals (Scientific Procedures) Act 1986 Amendment Regulations 2012 following ethical review by the University of Cambridge Animal Welfare and Ethical Review Body (AWERB). Adult female and male Sprague Dawley rats (n = 14; aged 7–10 weeks) were sacrificed using overdose of CO2 and cervical dislocation before heart tissue was removed and frozen on dry ice. […] Final pellets were then resuspended in 10 ml HEPES buffer (50 mM HEPES, pH 7.4) and protein concentration determined. […]
# (§2) Competition binding experiments were performed using pooled human homogenised left ventricle (HLV, 1.5 mg/ml) and pooled rat heart homogenates (1.5 mg/ml) as previously described. […] The samples were then re-centrifuged to collect protein pellets before bound radioactivity in these pellets were counted using Packard Cobra II Auto Gamma Counter (Packard). Data were analysed with Graphpad Prism 7 (Graphpad Software, Inc. La Jolla, CA), using the One-site Fit Ki equation.
# apelin receptor [5] = target: T1, apelin receptor; experiment: Radioligand competition binding, human left ventricle homogenate; parameters: experiments using native rat and human receptor; from tissue; host or cells: human left ventricle from explanted hearts of dilated cardiomyopathy patients; settings: [125I]apelin-13 0.1 nM, 90 min, competitor 50 pM-100 μM, mean ± SEM, n = 3 replicates per concentration; for Ki: human heart homogenate 1.5 mg/ml
# Description: Samples of human left ventricle were obtained with informed consent and ethical approval (05/Q104/142) via the Papworth Hospital Research Tissue Bank (08/H0304/56) from the explanted hearts of five dilated cardiomyopathy patients (4 males and 1 female, aged 38–55 years) undergoing transplantation. Studies conformed to the principles outlined in the declaration of Helsinki. All animal research was regulated under the Animals (Scientific Procedures) Act 1986 Amendment Regulations 2012 following ethical review by the University of Cambridge Animal Welfare and Ethical Review Body (AWERB). Adult female and male Sprague Dawley rats (n = 14; aged 7–10 weeks) were sacrificed using overdose of CO2 and cervical dislocation before heart tissue was removed and frozen on dry ice. Hearts were pooled and 2 g tissue transferred into a centrifuge tube (50 ml) containing 20 ml homogenisation buffer (50 mM Tris, 5 mM MgCl2, 5 mM EDTA, 1 mM EGTA at pH 7.4 with protease inhibitor cocktail) on ice. The tissue was homogenised on ice using a polytron probe with 2–3 × 20 s bursts and centrifuged at 3000 rpm for 2 min at 4 °C. The supernatant was further centrifuged at 18,500 rpm for 30 min at 4 °C. The resulting pellet was resuspended in 5 ml homogenisation buffer containing protease inhibitor cocktail and centrifuged at 18,500 rpm for 30 min at 4 °C twice. Final pellets were then resuspended in 10 ml HEPES buffer (50 mM HEPES, pH 7.4) and protein concentration determined. Samples were stored at −70 °C until required.
# as §2, with “described. […] (50 pM-100 μM).” for “described.”
# apelin receptor [6] = system: apelin receptor; parameters: method as in earlier work; settings: ref 20 (Galon-Tilleman et al.), cited from earlier work
# [7] = target: T3, apelin receptor (Rattus norvegicus), …; experiment: radioligand competition binding, heart homogenate; settings: modification not given
# [8] = n = 3-4 independent experiments
# [9] = CHO-K1 cells expressing human apelin receptor, 15 μM forskolin, 30 min, 37 °C, n = 3-4 independent experiments, read-out: cAMP Assay EC50
# [10] = CHO-K1 cells expressing human apelin receptor, 15 μM forskolin, 30 min, 37 °C, mean ± SEM, n = 3-4 independent experiments, SEM, read-out: cAMP Assay pD2±SEM (converted)
molecule,measurement,setting,value
[40kDa-PEG]-Apelin-36: N-terminal PEGylated (40kDa) apelin-36,cAMP Assay Fold change,apelin receptor [1],2 fold
same,cAMP Assay RE (relative effectiveness),apelin receptor [1],1.20
same,cAMP Assay ΔlogR,apelin receptor [1]; [8],0.08 ± 0.40
same,β-Arrestin Assay Fold change,apelin receptor [2],3 fold
same,β-Arrestin Assay RE (relative effectiveness),apelin receptor [2],0.26
same,β-Arrestin Assay ΔlogR,apelin receptor [2],−0.59 ± 0.16
same,cAMP vs β-arrestin Assay Bias factor,apelin receptor [3],5
same,cAMP vs β-arrestin Assay ΔΔlogR ± SEM,apelin receptor [3],0.67 ± 0.43
"Apelin-36-[L28C(30kDa-PEG)]: apelin-36 with leucine-28 to cysteine substitution, cysteine-28 PEGylated (30kDa) (LVQPRGSRNGPGPWQGGRRKFRRQRPRCSHKGPMPF)",pKi,apelin receptor [4],8.06 ± 0.37
same,EC50,apelin receptor [1]; [9],95.3 nM
same,β-Arrestin Assay pD2±SEM,apelin receptor [2],6.05 ± 0.06
same,pKi,apelin receptor [5]; human heart homogenate […],8.00 ± 0.05
"Apelin-36-[L28C(30kDa-PEG)]: apelin-36 with leucine-28 to cysteine substitution, cysteine-28 PEGylated (30kDa)",fold less potent / less active at apelin receptor compared to apelin-36,apelin receptor [6]; β-arrestin activation,"10,000 fold"
same,cAMP Assay Fold change,apelin receptor [1],104 fold
same,cAMP Assay RE (relative effectiveness),apelin receptor [1],0.01
same,cAMP Assay ΔlogR,apelin receptor [1]; [8],−1.95 ± 0.31
same,β-Arrestin Assay Fold change,apelin receptor [2]; listed as Apelin-36-[L28C (30kDa-PEG)],1324 fold
same,β-Arrestin Assay Fold change,apelin receptor [2]; listed as apelin-36-[L28C(30kDa-PEG)],1400 fold
same,β-Arrestin Assay RE (relative effectiveness),apelin receptor [2],0.0002
same,β-Arrestin Assay ΔlogR,apelin receptor [2],−3.71 ± 0.12
same,fold more potent in the cAMP assay compared to the β-arrestin assay,apelin receptor [3]; CHO-K1 cells expressing human apelin receptor,~10 fold
same,cAMP vs β-arrestin Assay Bias factor,apelin receptor [3],58
same,cAMP vs β-arrestin Assay ΔΔlogR ± SEM,apelin receptor [3],1.76 ± 0.33
LVQPRGSRNGPGPWQGGRRKFRRQRPRASHKGPMPF [Apelin-36-[L28A]],EC50,apelin receptor [1]; [9],13.1 nM
same,EC50,apelin receptor [2],37.2 nM
same,Ki,apelin receptor [5],3.02 nM
Apelin-13 [reference compound],agonist character at apelin receptor (comment),apelin receptor [6]; comment in Table 1,QRPRLSHKGPMPF (full agonist)
LVQPRGSRNGPGPWQGGRRKFRRQRPRLSHKGPMPF [Apelin-36],Ki,apelin receptor [4],0.0589 nM
same,EC50,apelin receptor [1]; [10],0.912 nM
same,EC50,apelin receptor [2],0.676 nM
same,Ki,apelin receptor [5],0.0525 nM
LVQPRGSRNGPGPWQGGRRKFRRQRPRLSHKGPMPA [Apelin-36-[F36A]],EC50,apelin receptor [1]; [10],1.26 nM
same,EC50,apelin receptor [2],8.13 nM
LVQPRGSRNGPGAWQGGRRKFRRQRPRASHKGPMPF [Apelin-36-[A13 A28]],EC50,apelin receptor [1]; [10],7.59 nM
same,EC50,apelin receptor [2],151 nM
[40kDa-PEG]-Apelin-36: N-terminal PEGylated (40kDa) apelin-36 (LVQPRGSRNGPGPWQGGRRKFRRQRPRLSHKGPMPF),cAMP Assay pD2±SEM,"apelin receptor [1]; CHO-K1 cells expressing human apelin receptor, 15 μM forskolin, 30 min, 37 °C, mean ± SEM, n = 3-4 independent experiments, SEM",8.69 ± 0.22
same,β-Arrestin Assay pD2±SEM,apelin receptor [2],8.71 ± 0.15
LVQPRGSRNGPGPWQGGRRKFRRQRPRASHKGPMPF (not fully specified) [apelin-36-[L28A]],Ki,[7],0.309 nM

# Source: article PMC6838674, “Apelin-36-[L28A] and Apelin-36-[L28C(30kDa-PEG)] peptides that improve diet induced obesity are G protein biased ligands at the apelin receptor” (Peptides, 2019)
